This test deals with T1, Recombinant human Src (Homo sapiens, UniProt P12931).
T1 construct: made in house; host or cells: baculovirus-insect cell system
The experiment in a line: Src tyrosine kinase activity, poly E4Y and 32P-ATP. Format: biochemical. The procedure:
Recombinant human Src was expressed using the baculovirus-insect cell system and purified as published (Budde et al., 1993 and 2000). Recombinant Csk and the FGF receptor (FGFr) were expressed as glutathione-S-transferase fusion proteins using the pGEX expression vector and E. coli, and purified as described (Sun & Budde, 1995).
The tyrosine kinase activity of Src, Csk and FGFr was determined using poly E4Y and ^32P-ATP. Briefly, enzymes were assayed in a reaction mixture consisting of 0.15 M EPPS-NaOH (pH 8.0) with 6 mM MgCl2, 0.2 mM γ^32P-ATP (0.2-0.4 mCi/μmol), 10% glycerol, 0.1% Triton X-100, and poly E4Y. Poly E4Y is a synthetic peptide whose phosphorylation is measured in this assay by the addition of the radioactively labeled phosphate from the ATP (Budde et al., 1995). […] When ATP was varied (0, 50, 100 and 250 μM), poly E4Y was kept constant at 150 μg/ml.

[1] abbreviates: Table 2, read-out: Src IC50 (especially good inhibitors of Src).
Setting [2] is: read-out: IC50 (preferred compounds for treatment of Src family-related disease).

This passage reports IC50 results from patent publication US7285556B2, “Thienopyrimidine-based inhibitors of the src family” (Board of Regents, The University of Texas Systems, priority 2000, dated 2007).

Read-outs that look alike come from different tables or passages of the source. A value given as a limit tells only on which side of the number the result lay.

T1 sequence (P12931 whole entry): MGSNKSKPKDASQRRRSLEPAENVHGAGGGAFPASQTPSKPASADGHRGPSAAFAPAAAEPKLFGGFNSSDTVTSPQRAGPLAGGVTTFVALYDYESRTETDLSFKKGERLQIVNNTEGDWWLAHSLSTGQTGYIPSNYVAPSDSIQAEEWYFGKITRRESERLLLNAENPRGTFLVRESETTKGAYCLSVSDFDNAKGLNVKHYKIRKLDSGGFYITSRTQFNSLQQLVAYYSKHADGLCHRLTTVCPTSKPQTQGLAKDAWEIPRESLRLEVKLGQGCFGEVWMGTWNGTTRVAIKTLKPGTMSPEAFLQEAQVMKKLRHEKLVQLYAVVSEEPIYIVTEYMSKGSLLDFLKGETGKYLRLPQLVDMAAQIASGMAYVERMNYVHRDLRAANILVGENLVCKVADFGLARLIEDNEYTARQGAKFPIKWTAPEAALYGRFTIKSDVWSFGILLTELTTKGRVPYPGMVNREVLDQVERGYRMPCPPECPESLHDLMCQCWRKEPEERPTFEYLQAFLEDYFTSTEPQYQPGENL

With `Cc1csc2c(NN=Cc3ccc(O)c(O)c3)ncnc12` [Compound 23, 3,4-Dihydroxybenzaldehyde(7-methylthieno[3,2-d]pyrimidin-4-yl)hydrazone], the IC50 by setting is: under setting [1], at most 2 µM; under setting [2], below 2 µM.

As for `Cc1csc2c(NN=Cc3c[nH]cn3)ncnc12` [Compound 42, 1H-Imidazole-4-carboxaldehyde(7-methylthieno[3,2-d]pyrimidin-4-yl)hydrazone], the concentration for half-maximal inhibition (IC50) is, setting by setting: under setting [1], at most 2 µM; under setting [2], below 2 µM.

For the molecule `Cc1csc2c(NN=Cc3ccc(O)c([N+](=O)[O-])c3)ncnc12` [Compound 49, 4-Hydroxy-3-nitrobenzaldehyde(7-methylthieno[3,2-d]pyrimidin-4-yl)hydrazone], the IC50 by setting is: under setting [1], at most 2 µM; under setting [2], below 2 µM.

Regarding `Cc1csc2c(NN=Cc3ccc(O)c(Cl)c3)ncnc12` [Compound 55, 3-Chloro-4-hydroxybenzaldehyde(7-methylthieno[3,2-d]pyrimidin-4-yl)hydrazone], the half-maximal inhibitory concentration (IC50) is at most 2 µM under setting [1] and below 2 µM under setting [2].

Turning to `C(=NNc1ncnc2ccsc12)c1cccnc1` [Compound 98, 3-Pyridinecarboxaldehyde(thieno[3,2-d]pyrimidin-4-yl)hydrazone], the concentration for half-maximal inhibition (IC50) was at most 2 µM under setting [1] and below 2 µM under setting [2].

As for `Cc1[nH]cnc1C=NNc1ncnc2c(C)csc12` [Compound 100, 5-Methyl-1H-imidazole-4-carboxaldehyde(7-methylthieno[3,2-d]pyrimidin-4-yl)hydrazone], the IC50 is at most 2 µM under setting [1] and below 2 µM under setting [2].

`Cc1csc2c(NN=CC3CC3)ncnc12` [Compound 178, Cyclopropanecarboxaldehyde(7-methylthieno[3,2-d]pyrimidin-4-yl)hydrazone]: the IC50 under setting [1] is at most 2 µM and the IC50 under setting [2] was below 2 µM.

On to `O=C(O)c1ccc(C=NNc2ncnc3c2sc2ncccc23)cc1` [Compound 245, 4-Carboxybenzaldehyde(pyrido[3′,2′:4,5]thieno[3,2-d]pyrimidin-4-yl)hydrazone], for which the IC50 runs as follows: under setting [1], at most 2 µM; under setting [2], below 2 µM.

Take `O=C(O)c1ccc(C=NNc2ncnc3cc(-c4ccc(F)cc4)sc23)cc1` [Compound 280, 4-Carboxybenzaldehyde(6-(4-fluorophenyl)thieno[3,2-d]pyrimidin-4-yl)hydrazone]: the concentration for half-maximal inhibition (IC50) was at most 2 µM under setting [1] and below 2 µM under setting [2].

Consider `CS(=O)(=O)c1ccc(-c2cc3ncnc(NN=Cc4ccc(C(=O)O)cc4)c3s2)cc1` [Compound 291, 4-Carboxybenzaldehyde(6-(4-methanesulphonylphenyl)thieno-[3,2-d]pyrimidin-4-yl)hydrazone], for which the IC50 runs as follows: under setting [1], at most 2 µM; under setting [2], below 2 µM.

In the case of `O=C(O)c1ccc(C=NNc2ncnc3cc(-c4cccc(Cl)c4)sc23)cc1` [Compound 305, 4-Carboxybenzaldehyde(6-(3-chlorophenyl)thieno[3,2-d]pyrimidin-4-yl)hydrazone], the half-inhibitory concentration (IC50) by setting is: under setting [1], at most 2 µM; under setting [2], below 2 µM.

For `O=C(O)c1ccc(C=NNc2ncnc3cc(-c4ccccc4Cl)sc23)cc1` [Compound 318, 4-Carboxybenzaldehyde(6-(2-chlorophenyl)thieno[3,2-d]pyrimidin-4-yl)hydrazone], the 50% inhibitory concentration (IC50) under setting [1] was at most 2 µM and the IC50 under setting [2] is below 2 µM.

Take `COc1ccc(C=NNc2ncnc3cc(-c4ccccc4Cl)sc23)cc1O` [Compound 321, 3-Hydroxy-4-methoxybenzaldehyde(6-(2-chlorophenyl)thieno[3,2-d]pyrimidin-4-yl)hydrazone]: the IC50 reads like this: under setting [1], at most 2 µM; under setting [2], below 2 µM.

As for `Cc1c(-c2ccccc2)sc2c(NN=Cc3cccnc3)ncnc12` [Compound 359, 3-Pyridinecarboxaldehyde(7-methyl-6-phenylthieno[3,2-d]pyrimidin-4-yl)hydrazone], the IC50 runs as follows: under setting [1], at most 2 µM; under setting [2], below 2 µM.

As to `Cc1c(-c2ccccc2)sc2c(NN=Cc3ccc(C(=O)O)cc3)ncnc12` [Compound 360, 4-Carboxybenzaldehyde(7-methyl-6-phenylthieno[3,2-d]pyrimidin-4-yl)hydrazone], the IC50 was at most 2 µM under setting [1] and below 2 µM under setting [2].

On to `Cc1c(I)sc2c(NN=Cc3ccc(C(=O)O)cc3)ncnc12` [Compound 373, 4-Carboxybenzaldehyde(6-iodo-7-methylthieno[3,2-d]pyrimidin-4-yl)hydrazone], for which the IC50 is at most 2 µM under setting [1] and below 2 µM under setting [2].

As for `Cc1c(-c2ccsc2)sc2c(NN=Cc3ccc(C(=O)O)cc3)ncnc12` [Compound 380, 4-Carboxybenzaldehyde(7-methyl-6-(3-thienyl)thieno[3,2-d]pyrimidin-4-yl)hydrazone], the half-maximal inhibitory concentration (IC50) runs as follows: under setting [1], at most 2 µM; under setting [2], below 2 µM.

In the case of `COc1ccc(C=NNc2ncnc3c(C)c(-c4ccsc4)sc23)cc1O` [Compound 382, 3-Hydroxy-4-methoxybenzaldehyde(7-methyl-6-(3-thienyl)thieno[3,2-d]pyrimidin-4-yl)hydrazone], the IC50 by setting is: under setting [1], at most 2 µM; under setting [2], below 2 µM.

Regarding `Cc1c(-c2ccccc2Cl)sc2c(NN=Cc3ccc(C(=O)O)cc3)ncnc12` [Compound 390, 4-Carboxybenzaldehyde(6-(2-chlorophenyl)7-methylthieno[3,2-d]pyrimidin-4-yl)hydrazone], the IC50 was at most 2 µM under setting [1] and below 2 µM under setting [2].

Turning to `O=C(O)c1ccc(C=NNc2ncnc3cc(I)sc23)cc1` [Compound 395, 4-Carboxybenzaldehyde(6-iodothieno[3,2-d]pyrimidin-4-yl)hydrazone], the half-maximal inhibitory concentration (IC50) is at most 2 µM under setting [1] and below 2 µM under setting [2].

As for `COc1ccc(-c2cc3ncnc(NN=Cc4cccnc4)c3s2)cc1` [Compound 405, 3-Pyridinecarboxaldehyde(6-(4-methoxyphenyl)thieno[3,2-d]pyrimidin-4-yl)hydrazone], the concentration for half-maximal inhibition (IC50) reads like this: under setting [1], at most 2 µM; under setting [2], below 2 µM.

Regarding `COc1ccc(-c2cc3ncnc(NN=Cc4ccc(C(=O)O)cc4)c3s2)cc1` [Compound 406, 4-Carboxybenzaldehyde(6-(4-methoxyphenyl)thieno[3,2-d]pyrimidin-4-yl)hydrazone], the IC50 is, setting by setting: under setting [1], at most 2 µM; under setting [2], below 2 µM.

Consider `COc1ccc(-c2sc3c(NN=Cc4ccc(C(=O)O)cc4)ncnc3c2C)cc1` [Compound 423, 4-Carboxybenzaldehyde(6-(4-methoxyphenyl)-7-methylthieno[3,2-d]pyrimidin-4-yl)hydrazone], for which the concentration for half-maximal inhibition (IC50) by setting is: under setting [1], at most 2 µM; under setting [2], below 2 µM.

As for `COc1cccc(-c2sc3c(NN=Cc4ccc(C(=O)O)cc4)ncnc3c2C)c1` [Compound 427, 4-Carboxybenzaldehyde(6-(3-methoxyphenyl)-7-methylthieno[3,2-d]pyrimidin-4-yl)hydrazone], the IC50 under setting [1] was at most 2 µM and the IC50 under setting [2] is below 2 µM.

With `COc1ccccc1-c1sc2c(NN=Cc3ccc(C(=O)O)cc3)ncnc2c1C` [Compound 433, 4-Carboxybenzaldehyde(6-(2-methoxyphenyl)-7-methylthieno[3,2-d]pyrimidin-4-yl)hydrazone], the 50% inhibitory concentration (IC50) under setting [1] is at most 2 µM and the IC50 under setting [2] was below 2 µM.

Turning to `COc1ccccc1-c1sc2c(NN=Cc3cccs3)ncnc2c1C` [Compound 434, 2-Thiophenecarboxaldehyde(6-(2-methoxyphenyl)-7-methylthieno[3,2-d]pyrimidin-4-yl)hydrazone], the half-maximal inhibitory concentration (IC50) under setting [1] is at most 2 µM and the half-maximal inhibitory concentration (IC50) under setting [2] is below 2 µM.

With `COc1ccc(C=NNc2ncnc3c(C)c(-c4ccccc4OC)sc23)cc1O` [Compound 435, 3-Hydroxy-4-methoxybenzaldehyde(6-(2-methoxyphenyl)-7-methylthieno[3,2-d]pyrimidin-4-yl)hydrazone], the 50% inhibitory concentration (IC50) by setting is: under setting [1], at most 2 µM; under setting [2], below 2 µM.

Consider `Cc1c(-c2ccc(CO)cc2)sc2c(NN=Cc3ccc(C(=O)O)cc3)ncnc12` [Compound 437, 4-Carboxybenzaldehyde(6-(4-hydroxymethylphenyl)-7-methylthieno[3,2-d]pyrimidin-4-yl)hydrazone], for which the IC50 runs as follows: under setting [1], at most 2 µM; under setting [2], below 2 µM.

`Cc1c(-c2cccc(CO)c2)sc2c(NN=Cc3cccnc3)ncnc12` [Compound 440, 3-Pyridinecarboxaldehyde(6-(3-hydroxymethylphenyl)-7-methylthieno[3,2-d]pyrimidin-4-yl)hydrazone]: the IC50 by setting is: under setting [1], at most 2 µM; under setting [2], below 2 µM.

With `Cc1c(-c2cccc(CO)c2)sc2c(NN=Cc3ccc(C(=O)O)cc3)ncnc12` [Compound 441, 4-Carboxybenzaldehyde(6-(3-hydroxymethylphenyl)-7-methylthieno[3,2-d]pyrimidin-4-yl)hydrazone], the concentration for half-maximal inhibition (IC50) is at most 2 µM under setting [1] and below 2 µM under setting [2].

On to `COc1ccc(C=NNc2ncnc3c(C)c(-c4cccc(CO)c4)sc23)cc1O` [Compound 443, 3-Hydroxy-4-methoxybenzaldehyde(6-(3-hydroxymethylphenyl)-7-methylthieno[3,2-d]pyrimidin-4-yl)hydrazone], for which the IC50 runs as follows: under setting [1], at most 2 µM; under setting [2], below 2 µM.

`Cc1c(/C=C/c2ccccc2)sc2c(NN=Cc3ccc(C(=O)O)cc3)ncnc12` [Compound 448, 4-Carboxybenzaldehyde(7-methyl-6-(trans-2-phenylvinyl)-thieno[3,2-d]pyrimidin-4-yl)hydrazone]: the IC50 reads like this: under setting [1], at most 2 µM; under setting [2], below 2 µM.

By IC50 is commonly meant the midpoint of a concentration-inhibition curve.
